Values quoted from earlier work in paper PMC9599640.

Design: method as in PMID 27217383
Conditions: phase I trial of abemaciclib

**Q.** With `CCN1CCN(Cc2ccc(Nc3ncc(F)c(-c4cc(F)c5nc(C)n(C(C)C)c5c4)n3)nc2)CC1` [abemaciclib] as the molecule, how does the MTD read?
**A.** The MTD was 200 mg BID.
